{"source": "patent US20220175798A1", "about": "“COMPOSITIONS COMPRISING OXYGENATED CHOLESTEROL SULFATE AND AT LEAST ONE OF POLYALKYLENE GLYCOL, CARBOXYMETHYL CELLULOSE AND POLYOXYLGLYCERIDE” (Durect Corporation, priority 2016, published 2022)", "key": {"[1]": {"assay": "Osmolality by vapor pressure osmometer", "assay_type": "physicochemical", "description": "Vapor Pressure Osmometer: Vapor® Vapor Pressure Osmometer, Model\nVehicle PEG 3350 (3% PEG 3350 plus 0.3% Tween 80 in 10 mM Phosphate at pH 7.4) with 0.71%, 0.77% and 0.80% NaCl were prepared and the osmolality was measured with a vapor pressure osmometer.\nWeigh 87 mg of 25HC3S (Lot #C, Jet milled and then pass 20 mesh screen) into a 5-mL vial. Add to the vial 3 mL Vehicle PEG 3350 (without L-methionine and with 0.75% NaCl). […] Weigh another approximately and accurately 90 mg each of 25HC3S (Lot #D and Lot #B, micronized, one pass) into 3 separate 10 mL vials with 3 mL of Vehicle PEG 3350. The vials were placed in a flat bed shaker at 200 rpm for 45 minutes (Mixing Method 4). […] A second set of samples was prepared likewise from the same 3 vials except using 1 mL BD syringe attached to a 27G½″ needle. The homogeneity was determined (Study #19)."}, "[2]": {"assay": "Stress study of suspension formulation with hydrogen peroxide", "assay_type": "physicochemical", "conditions": "stress study of 25HC3S suspension formulation with hydrogen peroxide", "description": "L-Methionine was initially added as an antioxidant. […] Therefore, L-Methionine was removed from the preferred suspension formulation. 25HC3S in Vehicle PEG 3350 (without L-Methionine) was used for further syringeability study (Studies #12 and 13)."}, "[3]": {"assay": "Oral pharmacokinetics in HFD-fed Golden Syrian hamsters", "assay_type": "in vivo", "description": "The subjects for the study were 40 Golden Syrian male hamsters. Two cohorts were provided with either regular diet (RD) or high fat diet (HFD) for 10 weeks. 25HC3 S treatment was initiated at the start of Week 11. Group 1 remained on a regular diet while HFD-fed hamsters were randomly divided into three treatment groups (Groups 2-4; Table 20).\nThe Vehicle was a solution of 0.5% (w/v) CMC and 0.05% (v/v) Tween-80 in water. Powdered 25HC3 S was constituted into the vehicle solution to result in drug concentrations of 2.5 and 10 mg/mL. The suspensions were homogenized for approximately 5 minutes being combined, with 10 second breaks every 30-40 seconds and swirled before dosing to maintain homogeneity. The formulated test article was prepared weekly and kept at room temperature.\nHamsters were treated with 25HC3 S by daily oral gavage for 6 weeks while maintained on RD or HFD. Each hamster received daily doses of 25HC3S or vehicle by oral gavage (N=10/group). There were two dose groups (Groups 3 and 4): 10 and 50 mg/kg, as specified in Table 20, with dose volumes of 4 and 5 mL/kg, respectively.\nFor pharmacokinetic (PK) analysis, blood was collected following the first 25HC3S dose. Whole blood samples were collected via the jugular vein at pre-dose, 0.5, 2, 4, 8, 12 hours (h) post dose from each hamster; however, the last blood collection may have been collected by terminal cardiac puncture with the animals deeply anesthetized by isoflurane. Blood samples were placed into tubes containing K2EDTA. The blood was gently mixed to assure distribution of the anti-coagulant and the resulting plasma samples underwent analyses to quantify 25HC3S levels."}, "[4]": {"system": "renal ischemia/reperfusion injury", "assay": "Renal ischemia/reperfusion injury in rats", "assay_type": "in vivo, Lewis rats", "conditions": "50 mg/kg daily for 4 days oral gavage; Day 3; vs vehicle; not statistically significant", "description": "The subjects for the study were 18 adult male Lewis rats (9-11 weeks of age; 225-250 g). […] All animals were in healthy condition and admitted to the study.\nThe Vehicle was a solution of 0.5% (w/v) CMC and 0.05% (v/v) Tween-80 in water. Powdered 25HC3 S was constituted into the vehicle solution to result in a drug concentration of 20 mg/mL. The suspensions were homogenized at 20,000 rotations per minute (rpm) for approximately 5 minutes after being combined, with 10 second breaks every 30-40 seconds and swirled before dosing to maintain homogeneity. The formulated test article was prepared weekly and kept at room temperature.\nAll rats were anesthetized with intraperitoneal injection of pentobarbital (40 mg/kg). Ischemia of the left kidney was achieved by transient occlusion of the left renal artery and vein, and ureter for 50 min with a vascular micro-clip. The skin was temporarily closed during the ischemia period and the rats were put on a heating pad maintained at a temperature of 37° C. At reperfusion, the right kidney was removed before permanently closing the abdomen with 4-0 silk suture Animals were treated with vehicle (N=6) or 25HC3S (N=12) daily for 4 days, starting on the day before the surgery, (pre-treatment, Day −1) and for 2 days after the surgery. […] Serum creatinine (sCr) levels and BUN levels were examined on Day −2 (baseline), Day 3, and/or Day 7 after the surgery."}, "[5]": {"system": "bile duct ligation cholestasis", "assay": "Bile duct ligated (BDL) rat model of cholestasis", "assay_type": "in vivo, CD1 rats", "description": "The subjects for the study were CD1 male rats (8 weeks of age, 200-225 g). Rats underwent BDL surgery, where the extrahepatic biliary tract was tightly ligated twice with sutures, then cut between the two ligations. A sham group (N=5/group) was also included in a subset of the studies described. […] The Vehicle was a solution of 0.5% (w/v) CMC and 0.05% (v/v) Tween-80 in water. Powdered 25HC3 S was constituted into the Vehicle solution to result in drug concentrations of 0.833 to 5 mg/mL. The suspensions were homogenized for approximately 5 minutes being combined, with 10 second breaks every 30-40 seconds and swirled before dosing to maintain homogeneity. The formulated test article was prepared weekly and kept at room temperature. […] were divided into treatment groups (N=8-10/group) and dosed daily or every 3 days for 9 days by oral gavage. 5, 10, 30 or 60 mg/kg 25HC3S or Vehicle was given starting one day (Day 1) after BDL surgery. On Day 10, serum was collected after an overnight fast and measured for serum biochemistry."}, "[6]": {"conditions": "daily oral 10 or 30 mg/kg (follow-up study)"}}, "data": [{"smiles": "C[C@H](CCCC(C)(C)O)[C@H]1CC[C@H]2[C@@H]3CC=C4C[C@@H](OS(=O)(=O)[O-])CC[C@]4(C)[C@H]3CC[C@]12C.[Na+]", "note": "[Formulation 25HC3S, 5-cholesten-3, 25-diol, 3-sulfate]", "values": [{"measurement": "osmolality", "setting": "[1]; final improved formulation 25 mg/mL (Study #18)", "value": 321, "unit": "mmol/kg"}, {"measurement": "osmolality", "setting": "[1]; suspension 25 mg/mL in Vehicle PEG 3350 without L-Methionine, 0.75% NaCl, average of 6 measurements", "value": 321, "unit": "mmol/kg"}, {"measurement": "oxidative degradation", "setting": "[2]", "value": "oxidative degradation did not occur"}, {"measurement": "dose-normalized AUC", "setting": "[3]; 10 mg/kg oral", "value": 195, "unit": "ng·h/mL/mg"}, {"measurement": "normalized Cmax", "setting": "[3]; 10 mg/kg oral", "value": 32.2, "unit": "ng/mL/mg"}, {"measurement": "normalized Cmax", "setting": "[3]; 50 mg/kg oral", "value": "only half of the 10 mg/kg dose"}, {"measurement": "mean half-life", "setting": "[3]; first oral dose", "value": 3, "unit": "h"}, {"measurement": "time of mean maximum plasma concentration", "setting": "[3]; first oral dose, both doses (10 and 50 mg/kg)", "value": 0.5, "unit": "h"}, {"measurement": "reduction of BUN levels", "setting": "[4]", "value": 5, "unit": "%"}, {"measurement": "reduction of sCr levels", "setting": "[4]", "value": "~20", "unit": "%"}, {"measurement": "body weight and other serum chemistry measures", "setting": "[5]; daily oral 5 mg/kg", "value": "little or no differences"}, {"measurement": "Body temperature on Day 9", "setting": "[5]; daily oral 5 mg/kg, vs Vehicle", "value": "significantly improved"}, {"measurement": "spleen-to-body weight ratio", "setting": "[5]; daily oral 5 mg/kg, vs Vehicle", "value": "significantly improved"}, {"measurement": "body weight gain after surgery", "setting": "[5]; daily oral 30 mg/kg (pilot study)", "value": "significantly improved"}, {"measurement": "body weight gain after surgery", "setting": "[5]; daily oral 60 mg/kg (pilot study)", "value": "modest increases"}, {"measurement": "liver histological analyses", "setting": "[5]; [6]", "value": "no differences"}, {"measurement": "serum liver enzymes", "setting": "[5]; [6]", "value": "trends of decrease"}, {"measurement": "Serum total, direct and indirect bilirubin levels", "setting": "[5]; daily oral 10 or 30 mg/kg, vs Vehicle (follow-up study)", "value": "significantly reduced"}, {"measurement": "serum biochemistry analytes, including serum bilirubin", "setting": "[5]; daily oral 30 or 60 mg/kg (pilot study)", "value": "No significant differences"}, {"measurement": "body weight, organ-to-bodyweight ratios or serum clinical chemistry", "setting": "[5]; oral every three days (Days 1, 4, 7), 10 or 30 mg/kg", "value": "no significant differences"}]}]}
